Measurements: US4707477A, “Treating and preventing agent for ischemic cardiac disease and arrhythmia” (priority 1985, dated 1987)
Where a name gives a salt, the structure may show the parent alone.

Experiments:
striated structure = assay: Pathological examination of striated structure (Experimental Example 1); type: in vivo, dog; settings: previously administered, 0.5 mg/kg i.v.
Description: (§1) A dog was anesthetized with 50 mg/kg of sodium pentobarbital and a 2% CaC12 solution was intravenously injected into the femoral vein of the animal at a rate of 1.33 ml/min/10 kg. After 90 min, 0.1 mg, 0.2 mg and 0.3 mg of adrenaline were successively injected thereto intraveneously.
From a pathological viewpoint, the striated structure of a subject was damaged in the case where no bunazosin hydrochloride was previously administered.

[1] = Acute toxicity, LD50, Wistar rat; settings: in vivo
[2] = Acute toxicity, LD50, ICR mouse; settings: in vivo
dog = assay: Adrenaline-induced ventricular tachycardia/fibrillation after CaCl2 infusion in anesthetized dog (Experimental Example 1); type: in vivo; settings: 0.5 mg/kg i.v. 12 min before adrenaline, 0.1, 0.2 and 0.3 mg adrenaline successively i.v., 2% CaCl2 infusion
Description: as §1

Solubility = type: physicochemical
[3] = system: Creatinie phosphokinase (CPK); assay: Creatine phosphokinase (CPK) after CaCl2, sodium polystyrenesulfonate and adrenaline in anesthetized dog (Experimental Example 2); type: in vivo; settings: 0.5 mg/kg previously administered
Description: A dog was anesthetized with 50 mg/kg of sodium pentobarbital and a 0.5% CaCl2 solution was intravenously injected into the femoral vein of the animal at a rate of 1.33 ml/min/10 kg simultaneously with enemiasis of 25 g of sodium polystyrenesulfonate. After 30 min, 0.05 mg/kg of adrenaline was intravenously injected thereto.

In the case of `CCCC(=O)N1CCCN(c2nc(N)c3cc(OC)c(OC)cc3n2)CC1` [bunazosin hydrochloride], the “change of striated structure (pathological viewpoint)” value (striated structure) is reported as “no change was observed”, the LD50 ([1]; im, female, intramuscular) is reported as 152 mg/kg and the LD50 ([1]; im, male, intramuscular) is reported as 205 mg/kg. For the same molecule, the LD50 ([1]; iv, female) was 50 mg/kg, the LD50 ([1]; iv, male) was 51 to 64 mg/kg and the LD50 ([1]; po, female) was 1280 mg/kg. For the same molecule, the LD50 ([1]; sc, female, subcutaneous) was 365 mg/kg, the LD50 ([1]; sc, male, subcutaneous) was 430 mg/kg and the LD50 ([2]; im, female, intramuscular) was 598 mg/kg. The LD50 ([2]; im, male, intramuscular) was 660 mg/kg, the LD50 ([2]; iv, female) was 80 mg/kg and the LD50 ([2]; iv, male) was 57 mg/kg. It also gave an LD50 ([2]; po, female) of 1250 mg/kg, an LD50 ([2]; po, male) of 1200 mg/kg and an LD50 ([2]; sc, female, subcutaneous) of 630 mg/kg. For the same molecule, the LD50 ([2]; sc, male, subcutaneous) was 730 mg/kg, the “ventricular tachycardia or ventricular fibrillation” value (dog) was “none among ten animals” and the solubility (Solubility; absolute ethanol) was “hardly soluble”. For the same molecule, the solubility (Solubility; chloroform) was “almost insoluble”, the solubility (Solubility; formic acid) was “highly soluble” and the solubility (Solubility; methanol) was “not readily soluble”. The solubility (Solubility; n-butanol) was “hardly soluble”, the solubility (Solubility; water) was “not readily soluble” and the “CPK, difference from the control” value ([3]; 60 min after injection of adrenaline) was “no significant difference from the control”. The CPK ([3]; determined 60 min after injection of adrenaline (0.05 mg/kg i.v.)) was 85.1±15.6.
